Tests used:
[1] = tested on: BLM melanoma cells; assay: Real time cell monitoring assay (xCELLigence), BLM; format: cell-based, human; conditions: BLM, 20, 50 and 100 μM, 104 hours, vs. control
Protocol: FIG. 5: real time cell monitoring of BLM and SK-MEL-28 melanoma cells treated with 6-PN and 8-PN. (A) BML and SK-MEL-28 cells were treated 24 hours after seeding with different concentrations of 6-PN and 8-PN (20 μM, 50 μM and 100 μM) over a 104 hour time period. The cellular impedance was measured over the entire observation time using the xCELLigence™ SP system and is depicted by the cell index (CI). All CI-values were normalized shortly before the treatment started. […] As a positive control, Triton X-100 0.1% was used to induce cell death. Shown are the mean±SD of three independent experiments, each performed in triplicates (B, C). […]
The human melanoma cell lines BLM and SK-MEL-28 (2.5×10^3 cells/well) were seeded in 96 well plates. The cells were treated after 24 hours with different concentrations of 6-PN or 8-PN (20 μM, 50 μM and 100 μM) and monitored by measurements of electrical impedance in 15 minutes intervals for an overall time span of in total 104 hours using the xCELLigencer® SP Systems (Roche Applied Science). The cell index values were calculated using the RTCA software (1.0.0.0805). […]
The human metastatic melanoma cell lines BLM and SK-MEL-28 were treated once with rising concentrations of 6-PN or 8-PN (20 μM, 50 μM and 100 μM) and monitored continuously for an overall time span of 104 hours using a real time monitoring assay (FIG. 5A). […]

[2] = tested on: chicken embryos; assay: Embryo toxicity testing in chicken embryos; format: in vivo; conditions: 100 μM in ethanol and PBS, after 72 hours
Protocol: FIG. 11: 6-PN and 8-PN reduce proliferation and invasion of BLM and LOXIMVI melanoma cells in human epidermal skin reconstructs and induce little embryo toxicity. (A) BLM melanoma cells and keratinocytes were seeded on top of a collagen matrix populated by fibroblasts. After 16 days a keratinizing stratified epithelium with a rudimentary corium is formed. […] (B) Similar results were obtained for LOXIMVI melanoma cells under the same treatment conditions. Only nests of dead, MIB1 negative LOXIMVI cells were detected after treatment with the PNs. (C) Chicken embryos stage 13HH (corresponding to 6 human gestational weeks) were exposed to DMSO as control, 100 μM 6-PN or 100 μM 8-PN to determine LD50 values. Survival rates after 24 hours, 48 hours, and 72 hours are depicted in a Kaplan-Meier plot.
Fertilized eggs of leghorn chickens (Gallus gallus domesticus) were incubated at 38° C. in a temperature-controlled, humidified brooder. […]
Due to the detected cytotoxic effects on cancer cells and of melanocytes in vitro, the determination of in vivo embryotoxicity was of great interest. To this end, 2-day chicken embryos were treated for 24, 48 and 72 hours with 100 μM 6-PN or 100 μM 8-PN to monitor survival as readout for lethal embryotoxicity (FIG. 11C). […]

[3] = tested on: estrogen receptors of the rat uterus; conditions: cited from earlier work

What does the source list for `CC(C)=CCc1c(O)cc(O)c2c1OC(c1ccc(O)cc1)CC2=O` (stereo not drawn) [8-PN, 5,7-Dihydroxy-2-(4-hydroxy-phenyl)-8-(3-methyl-but-2-enyl)-chroman-4-one]?
normalized cell index (CI) [1]: descended over time; embryos survived [2]: 8/10; binding affinity for estrogen receptors [3]: strong binding affinity

— US20160067211A1, “PHARMACEUTICAL COMPOSITION” (Eberhard Karls Universitaet Tuebingen Medizinische Fakultaet, priority 2013, published 2016)
